In assay [1] the target is T1, Nociceptin receptor (Homo sapiens, UniProt P41146). In words: Agonistic activity determined by ability to stimulate GTP gamma S binding in comparison to nociceptin (N/OFQ). Also noted: concentration or dose not given beside the values.
Assay [2] has as its target Nociceptin receptor (Rattus norvegicus) (UniProt P35370). In words: Agonistic activity by its ability to stimulate NOP in comparison to DAMGO. Type of assay: functional.
The target in assay [3] is T1, Nociceptin receptor. Put plainly: Binding affinity for opioid receptor like 1 expressed in HEK293 cells. The class given is cell-based.
Assay [4] addresses Mu-type opioid receptor (Homo sapiens, UniProt P35372). In words: Binding affinity for recombinant human mu-opioid receptor was determined by using [3H]- diprenophine radioligand.
Assay [5] addresses T1, Nociceptin receptor. Put plainly: Partial agonistic activity determined by ability to stimulate GTP gamma S binding in comparison to nociceptin (N/OFQ).
Assay [6] has as its target Mu opioid receptor (Rattus norvegicus) (UniProt P33535). Put plainly: Partial agonistic activity by its ability to stimulate GTP gamma S binding in comparison to DAMGO.
The target in assay [7] is Nociceptin receptor (Rattus norvegicus) (UniProt P35370). Put plainly: Partial agonistic activity by its ability to stimulate NOP in comparison to DAMGO. Type of assay: functional.
Sequence of Nociceptin receptor (Rattus norvegicus) (P35370 whole entry): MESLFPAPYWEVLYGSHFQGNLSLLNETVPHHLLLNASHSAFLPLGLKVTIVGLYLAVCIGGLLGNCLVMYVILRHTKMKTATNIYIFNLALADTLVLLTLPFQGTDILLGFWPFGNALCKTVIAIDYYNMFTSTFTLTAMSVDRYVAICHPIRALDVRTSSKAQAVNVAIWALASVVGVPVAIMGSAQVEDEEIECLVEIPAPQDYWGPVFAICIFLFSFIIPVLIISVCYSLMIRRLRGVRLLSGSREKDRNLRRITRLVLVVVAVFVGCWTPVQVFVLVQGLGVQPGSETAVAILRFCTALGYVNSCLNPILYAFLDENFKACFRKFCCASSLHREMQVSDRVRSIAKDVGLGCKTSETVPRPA
Assay [8] has the same target. Put plainly: Partial Agonistic activity by its ability to stimulate NOP in comparison to DAMGO. Type of assay: functional.

T1 sequence (P41146 whole entry): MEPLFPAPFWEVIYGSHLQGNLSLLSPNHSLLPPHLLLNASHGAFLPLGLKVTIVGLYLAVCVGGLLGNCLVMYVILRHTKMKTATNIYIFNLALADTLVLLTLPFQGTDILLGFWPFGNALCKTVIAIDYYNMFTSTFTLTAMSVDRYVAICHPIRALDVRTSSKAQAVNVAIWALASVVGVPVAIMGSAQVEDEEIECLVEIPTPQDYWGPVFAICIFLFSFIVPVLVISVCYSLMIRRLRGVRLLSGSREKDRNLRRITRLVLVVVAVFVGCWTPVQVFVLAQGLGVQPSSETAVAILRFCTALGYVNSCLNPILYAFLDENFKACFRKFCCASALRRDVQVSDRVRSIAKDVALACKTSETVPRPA
Sequence of Mu-type opioid receptor (P35372 whole entry): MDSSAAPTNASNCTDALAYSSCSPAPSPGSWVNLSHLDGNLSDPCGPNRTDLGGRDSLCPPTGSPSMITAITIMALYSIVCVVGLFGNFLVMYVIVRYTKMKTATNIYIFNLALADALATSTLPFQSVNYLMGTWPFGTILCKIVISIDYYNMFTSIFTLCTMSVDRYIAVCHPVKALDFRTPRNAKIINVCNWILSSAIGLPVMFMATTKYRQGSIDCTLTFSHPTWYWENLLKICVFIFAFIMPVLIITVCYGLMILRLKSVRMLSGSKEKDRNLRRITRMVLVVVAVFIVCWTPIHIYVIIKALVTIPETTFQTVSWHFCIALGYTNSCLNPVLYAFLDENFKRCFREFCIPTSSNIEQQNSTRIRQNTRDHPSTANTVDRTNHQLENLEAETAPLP
Sequence of Mu opioid receptor (Rattus norvegicus) (P33535 whole entry, looked up): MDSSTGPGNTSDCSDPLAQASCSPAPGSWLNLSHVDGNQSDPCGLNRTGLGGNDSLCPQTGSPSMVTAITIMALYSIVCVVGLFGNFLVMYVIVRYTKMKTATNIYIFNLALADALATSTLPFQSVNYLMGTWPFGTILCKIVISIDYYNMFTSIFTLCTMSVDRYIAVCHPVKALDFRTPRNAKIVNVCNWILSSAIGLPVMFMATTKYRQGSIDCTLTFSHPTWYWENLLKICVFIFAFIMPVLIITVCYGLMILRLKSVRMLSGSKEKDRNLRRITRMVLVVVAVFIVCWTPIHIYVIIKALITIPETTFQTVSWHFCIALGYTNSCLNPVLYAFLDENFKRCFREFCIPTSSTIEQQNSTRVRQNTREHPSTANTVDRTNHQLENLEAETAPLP

Turning to `OC1(c2cccc(C(F)(F)F)c2)CCN(CCC(c2ccccc2)c2ccccc2)CC1`, the Activity in assay [1] and in assay [2] was over 75% in each case.

Consider `O=C(O)C(CCN1CCC(O)(c2cccc(C(F)(F)F)c2)CC1)(c1ccccc1)c1ccccc1`, for which the Ki in assay [3] was over 10000 nM; in assay [4], 331 nM. The Activity in assay [1] is over 75%.

With `[O-][N+]1(CCC(c2ccccc2)c2ccccc2)CCC(O)(c2ccc(Cl)c(C(F)(F)F)c2)CC1` (stereo not drawn), the inhibition constant Ki in assay [3] and in assay [4] was over 10000 nM in each case.

As for `COC(=O)C(CCN1CCC(O)(c2ccc(Cl)c(C(F)(F)F)c2)CC1)(c1ccccc1)c1ccccc1`, the Ki in assay [3] stood at 149 nM; in assay [4], 0.3 nM. Besides, the Activity in assay [1] and in assay [2] was over 75% throughout.

In assay [5], `OC1(c2ccc(Cl)c(C(F)(F)F)c2)CCN(Cc2ccc(C(F)(F)F)cc2)CC1` came in with an Activity of over 10%. Further, the Ki in assay [4] amounted to 104 nM.

Take `CN(C)C(=O)C(CCN1CCC(O)(c2ccc(Cl)c(C(F)(F)F)c2)CC1)(c1ccccc1)c1ccccc1` [FLUPERAMIDE]: the Ki came out at 2150 nM in assay [3] and 0.11 nM in assay [4]. Moreover, the Activity in assay [1] is over 75%.

As to `COC(=O)C(CCN1CCC(O)(c2ccc(Cl)cc2)CC1)(c1ccccc1)c1ccccc1`, the inhibition constant (Ki) in assay [3] amounted to 590 nM; in assay [4], 0.23 nM. Further, the Activity in assay [1] and in assay [2] was over 75% in each case.

The compound `O=C(O)C(CCN1CCC(O)(c2ccc(Cl)cc2)CC1)(c1ccccc1)c1ccccc1` displayed a Ki in assay [3] of over 10000 nM. This compound also gave an Activity in assay [1] of over 75%.

In turn, `CN(C)C(=O)C(CCN1CCC(O)(c2ccc(Cl)cc2)CC1)(c1ccccc1)c1ccccc1` [LOPERAMIDE] yielded an inhibitory constant (Ki) in assay [3] of over 10000 nM. Further, the Activity in assay [1] is over 75%.

For `N#Cc1ccc(CN2CCC(O)(c3ccc(Cl)c(C(F)(F)F)c3)CC2)cc1`, the Ki in assay [4] is over 10000 nM.

Turning to `[O-][N+]1(Cc2ccc3ccccc3c2)CCC(O)(c2ccc(Cl)c(C(F)(F)F)c2)CC1` (stereo not drawn), the inhibitory constant (Ki) in assay [3] and in assay [4] was over 10000 nM each time.

On to `OC1(c2ccc(Cl)c(C(F)(F)F)c2)CCN(CCC(c2ccccc2)c2ccccc2)CC1`, for which the Activity in assay [1] is over 75%; in assay [6], over 10%.

Consider `COC(=O)C(CCN1CCC(O)(c2cccc(C(F)(F)F)c2)CC1)(c1ccccc1)c1ccccc1`, for which the inhibition constant (Ki) came out at 78 nM in assay [3] and 0.11 nM in assay [4]. Further, the Activity in assay [1] and in assay [2] was over 75% throughout.

Turning to `OC1(c2ccc(Cl)c(C(F)(F)F)c2)CCN(Cc2ccc3ccccc3c2)CC1`, in assay [7], the Activity was over 10%. In addition, the Ki in assay [4] came out at 2.5 nM.

On to `[O-][N+]1(CCC(c2ccccc2)c2ccccc2)CCC(O)(c2cccc(C(F)(F)F)c2)CC1` (stereo not drawn), for which the results for the Ki in assay [3] and in assay [4] were over 10000 nM and 8130 nM, respectively.

Take `CN(C)C(=O)C(CCN1CCC(O)(c2cccc(C(F)(F)F)c2)CC1)(c1ccccc1)c1ccccc1`: the results for the Ki in assay [3] and in assay [4] were 505 nM and 0.16 nM, respectively. The Activity in assay [1] and in assay [2] was over 75% each time.

In the case of `O=C(O)C(CCN1CCC(O)(c2ccc(Cl)c(C(F)(F)F)c2)CC1)(c1ccccc1)c1ccccc1`, the inhibitory constant (Ki) is over 10000 nM in assay [3] and 489 nM in assay [4]. In assay [1], this compound yielded an Activity of over 75%.

In the case of `OC1(c2ccc(Cl)cc2)CCN(CCC(c2ccccc2)c2ccccc2)CC1`, the inhibition constant (Ki) came to 372 nM in assay [3] and 37 nM in assay [4]. Moreover, the Activity in assay [5] and in assay [8] was over 10% in each case.

(Values after ChEMBL document CHEMBL1137050, “Design and synthesis of 4-phenyl piperidine compounds targeting the mu receptor” (Bioorg Med Chem Lett, 2004).)
